Laboratory results from patent US9574189B2, “Enzymatic encoding methods for efficient synthesis of large libraries” (Nuevolution A/S, priority 2005, dated 2017).

Target: T1, human alpha-thrombin (Homo sapiens, UniProt P00734)
T1 construct: purchased Heamatologic Technologies Inc
Experiment: Ki of released display molecule against thrombin, chromogenic substrate S-2238
Format: biochemical
Conditions: display molecule released by UV cleavage; 5 min incubation at 22° C.; nonlinear regression of Vmax; 95% confidence interval 0-13 nM
Experimental: To determine the Ki of the released display molecule against the protease thrombin, human alpha-thrombin (Heamatologic Technologies Inc.) was diluted in buffer (0.015 units/μl) and the released display molecule was added. Following 5 minutes of incubation at 22° C. a chromogenic substrate (Chromogenix catalogue number S-2238) was added and the maximum turnover (Vmax) of the enzyme was determined in a by measuring the change in absorbance at 405 nm using a Versamax reader (Molecular Devices). This was repeated for different concentrations of the released display molecule and different concentrations of substrate. The Vmax values obtained were then fitted using nonlinear regression implemented in the Prism software (Graphpad) to obtain the Ki of the display molecule.

Work on `NC(=O)COc1ccc(Cl)cc1CNC(=O)[C@H]1CCCN1C(=O)[C@@H](N)C1CCCCC1` yielded a Ki of 5.2 nM.
